Experimental data published in US20250205342A1, “IRAK DEGRADERS AND USES THEREOF” (Kymera Therapeutics, Inc., priority 2022, published 2025).

Tests used:
IRAK4 [1] = biological target: T1, IRAK4 (Homo sapiens, UniProt Q9NWZ3); assay: IRAK4 degradation in OCI-LY10 (MSD, Meso Scale Discovery); type: cell-based; set-up: endogenous in cells; host or cells: OCI-LY10; conditions: OCI-LY10 cells, 24 h
T1 sequence (Q9NWZ3 1-460): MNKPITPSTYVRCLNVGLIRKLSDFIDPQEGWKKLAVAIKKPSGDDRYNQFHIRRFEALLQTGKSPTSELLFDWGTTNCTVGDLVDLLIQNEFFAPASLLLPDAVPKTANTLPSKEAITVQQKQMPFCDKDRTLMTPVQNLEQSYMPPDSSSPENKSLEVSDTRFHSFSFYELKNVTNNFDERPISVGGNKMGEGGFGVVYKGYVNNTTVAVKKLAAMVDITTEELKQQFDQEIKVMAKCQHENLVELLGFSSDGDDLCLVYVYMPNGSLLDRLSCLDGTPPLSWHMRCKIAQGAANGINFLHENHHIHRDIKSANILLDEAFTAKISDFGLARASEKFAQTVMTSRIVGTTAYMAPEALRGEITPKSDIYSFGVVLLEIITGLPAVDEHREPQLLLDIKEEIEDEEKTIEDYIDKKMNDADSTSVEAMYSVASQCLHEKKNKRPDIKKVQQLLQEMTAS
In short: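 OCI-LY10 cells (300,000/well) were treated with an 8-point 1:3 series (top 1 to 10 μM) for 4 to 24 h at 37 °C. IRAK4 in RIPA lysates was quantified by MSD sandwich immunoassay with two anti-IRAK4 antibodies. DC50 was fitted with a three-parameter logistic equation.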

IRAK4 [2] = biological target: T1, IRAK4; assay: hPBMC IRAK4 degradation flow assay (monocytes); type: cell-based; set-up: endogenous in cells; host or cells: human PBMCs (monocytes, CD14 positive gate); conditions: CD14 positive monocytes, 20 h, read-out: hPBMC monocyte DC50 at 20 h
In short: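 Thawed human PBMCs treated 20 h (or 4 h) at 37° C. with 10-point 5-fold compound dilutions, 0.1% DMSO, then fixed, methanol-permeabilized and stained for IRAK4 and lineage markers by flow, with monocytes gated CD14+. IRAK4 MFI normalized to DMSO and 10 µM control; DC50 and max degradation from 4-parameter logistic fit.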

Row | SMILES | DC50 (IRAK4 [1]) [µM] | DC50 (IRAK4 [2]) [µM]
1 | O=C(O)Cn1cc(NC(=O)c2cccc3c2ccn3CCCCCCCCCNC[C@H]2CC[C@H](n3cc(NC(=O)c4cnn5ccc(N6C[C@H]7C[C@@H]6CO7)nc45)c(C(F)F)n3)CC2)ccc1=O [Compound I-70] | > 10 | > 10
2 | CCOC(=O)Cn1cc(NC(=O)c2cccc3c2ccn3CCCCCCNC[C@H]2CC[C@H](n3cc4cc(NC(=O)c5cccc(C(F)(F)F)n5)c(C(C)(C)O)cc4n3)CC2)ccc1=O [Compound I-71] | > 10 | > 10
3 | CCOC(=O)Cn1cc(NC(=O)c2cccc3c2ccn3CCCCCCCCCNC[C@H]2CC[C@H](n3cc(NC(=O)c4cnn5ccc(N6C[C@H]7C[C@@H]6CO7)nc45)c(C(F)F)n3)CC2)ccc1=O [Compound I-73] | > 10 | > 10
4 | O=C(O)Cn1cc(NC(=O)c2cc(CCCCCCCCCNC[C@H]3CC[C@H](n4cc(NC(=O)c5cnn6ccc(N7C[C@H]8C[C@@H]7CO8)nc56)c(C(F)F)n4)CC3)cc(-c3cccnc3)c2)ccc1=O [Compound I-74] | > 10 | > 10
5 | O=C(O)Cn1cc(NC(=O)c2cc(CCCNC[C@H]3CC[C@H](n4cc(NC(=O)c5cnn6ccc(N7C[C@H]8C[C@@H]7CO8)nc56)c(C(F)F)n4)CC3)cc(-c3cccnc3)c2)ccc1=O [Compound I-76] | > 10 | > 10
6 | O=C(O)Cn1cc(NC(=O)c2cccc3c2ccn3CCCNC[C@H]2CC[C@H](n3cc(NC(=O)c4cnn5ccc(N6C[C@H]7C[C@@H]6CO7)nc45)c(C(F)F)n3)CC2)ccc1=O [Compound I-77] | > 10 | > 10
7 | CC(C)(O)c1cc2nn([C@H]3CC[C@H](CNCCCn4ccc5c(C(=O)Nc6ccc(=O)n(CC(=O)O)c6)cccc54)CC3)cc2cc1NC(=O)c1cccc(C(F)(F)F)n1 [Compound I-78] | > 10 | > 10
8 | CCOC(=O)Cn1cc(NC(=O)c2cccc3c2ccn3CCCNC[C@H]2CC[C@H](n3cc4cc(NC(=O)c5cccc(C(F)(F)F)n5)c(C(C)(C)O)cc4n3)CC2)ccc1=O [Compound I-79] | > 10 | > 10

Continued, values first:

Row | DC50 (IRAK4 [1]) [µM] | DC50 (IRAK4 [2]) [µM] | SMILES
9 | > 10 | > 10 | COc1cc(-c2ccc(F)c(CCCCCCCCCNC[C@H]3CC[C@H](n4cc(NC(=O)c5cnn6ccc(N7C[C@H]8C[C@@H]7CO8)nc56)c(C(F)F)n4)CC3)c2)ccc1C(=O)Nc1ccc(=O)n(CC(=O)O)c1 [Compound I-65]
10 | 1 to 10 | > 10 | CCOC(=O)Cn1cc(NC(=O)c2ccc(-c3ccc(F)c(CCCCCCCCCNC[C@H]4CC[C@H](n5cc(NC(=O)c6cnn7ccc(N8C[C@H]9C[C@@H]8CO9)nc67)c(C(F)F)n5)CC4)c3)cc2OC)ccc1=O [Compound I-66]
11 | > 10 | > 10 | CCOC(=O)Cn1cc(NC(=O)c2ccc(-c3ccc(CCCCCCCCCNC[C@H]4CC[C@H](n5cc(NC(=O)c6cnn7ccc(N8C[C@H]9C[C@@H]8CO9)nc67)c(C(F)F)n5)CC4)cc3)cc2OC)ccc1=O [Compound I-67]
12 | > 10 | 1 to 10 | CC(C)(O)c1cc2nn([C@H]3CC[C@H](CNCCCCCCCCCn4ccc5c(C(=O)Nc6ccc(=O)n(CC(=O)O)c6)cccc54)CC3)cc2cc1NC(=O)c1cccc(C(F)(F)F)n1 [Compound I-68]
13 | 0.1 to 1 | 0.1 to 1 | CCOC(=O)Cn1cc(NC(=O)c2cccc3c2ccn3CCCCCCCCCNC[C@H]2CC[C@H](n3cc4cc(NC(=O)c5cccc(C(F)(F)F)n5)c(C(C)(C)O)cc4n3)CC2)ccc1=O [Compound I-69]
14 | 1 to 10 | 1 to 10 | CCOC(=O)Cn1cc(NC(=O)c2cc(CCCCCCCCCNC[C@H]3CC[C@H](n4cc5cc(NC(=O)c6cccc(C(F)(F)F)n6)c(C(C)(C)O)cc5n4)CC3)cc(-c3cccnc3)c2)ccc1=O [Compound I-72]
15 | 1 to 10 | > 10 | CCOC(=O)Cn1cc(NC(=O)c2cc(CCCCCCCCCNC[C@H]3CC[C@H](n4cc(NC(=O)c5cnn6ccc(N7C[C@H]8C[C@@H]7CO8)nc56)c(C(F)F)n4)CC3)cc(-c3cccnc3)c2)ccc1=O [Compound I-75]
